The target in experiment [1] is T1, hOT7T175 (Homo sapiens, UniProt Q969F8, L364H). Briefly: Intracellular Ca ion level-increasing activity using FLIPR in hOT7T175/CHO. In kind it is cell-based. The arrangement: expressed in transfected cells; host or cells: CHO/dhfr- cells, obtained from ATCC. The settings on record: relative, Metastin (1-54) = 1.
The target of experiment [2] is T1, hOT7T175. Put plainly: hOT7T175 receptor binding activity: binding inhibition of Cy-5-labeled metastin (40-54) on hOT7T175-expressed CHO cells. Set-up: expressed in transfected cells; host or cells: CHO cells.

Structures are written as SMILES. Numbered stars: 1 amine (or outer) side, 2 acyl side, 3 side chain; on linkers, the order of the positions; unused ones are H or OH. Square brackets hold non-standard residues; d marks the D form. Peptide text beside a SMILES is read from it. * marks the point of attachment. X7 = CNC(=N)NCCCC[C@H](N[*:1])C(=O)[*:2]; 1Nal = N[C@@H](Cc1cccc2ccccc12)C(=O)O; Arg(Me) = CNC(=N)NCCC[C@H](N)C(=O)O; Hydrocinnamoyl = O=C(CCc1ccccc1)*; 2Pal = N[C@@H](Cc1ccccn1)C(=O)O; Cha = N[C@@H](CC1CCCCC1)C(=O)O; X3 = NC(=S)[C@H](Cc1ccccc1)N*; Orn = NCCC[C@H](N)C(=O)O; azaGly = NNC(=O)O

T1 sequence (Q969F8 whole entry L364H): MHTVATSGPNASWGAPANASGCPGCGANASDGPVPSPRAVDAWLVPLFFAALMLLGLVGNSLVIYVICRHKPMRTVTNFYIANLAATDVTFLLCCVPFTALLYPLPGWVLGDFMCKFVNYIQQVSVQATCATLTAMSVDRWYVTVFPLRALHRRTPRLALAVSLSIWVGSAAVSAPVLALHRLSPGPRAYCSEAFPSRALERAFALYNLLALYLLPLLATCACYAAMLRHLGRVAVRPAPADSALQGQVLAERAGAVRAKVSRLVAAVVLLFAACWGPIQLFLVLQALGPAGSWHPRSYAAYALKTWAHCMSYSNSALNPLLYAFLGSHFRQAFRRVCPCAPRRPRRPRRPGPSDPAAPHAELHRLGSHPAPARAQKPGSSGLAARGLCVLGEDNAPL

For the molecule `CNC(=N)NCCC[C@H](NC(=O)[C@H](CC(C)C)NC(=O)NNC(=O)[C@H](Cc1ccccc1)NC(=O)[C@H](CO)NC(=O)[C@H](CC(N)=O)NC(=O)[C@H](C)NC(=O)[C@H](CC(N)=O)NC(=O)[C@H](N)Cc1ccc(O)cc1)C(=O)N[C@@H](Cc1ccccc1)C(N)=O` [Compound No. 235, D-Tyr-Asn-Ala-Asn-Ser-Phe-AzaGly-Leu-Arg(Me)-Phe-NH2] (H-[dY]NANSF[azaGly]L[Arg(Me)]F-NH2), the “Specific Activity (intracellular Ca ion level-increasing activity)” value in experiment [1] was 1. Besides, the IC50 (in general, the point on the concentration scale where inhibition reaches its midpoint) in experiment [2] is 100 nM.
For `CNC(=N)NCCC[C@H](NC(=O)[C@H](CC(C)C)NC(=O)NNC(=O)[C@H](Cc1ccccc1)NC(=O)[C@H](CO)NC(=O)[C@H](CC(N)=O)NC(=O)CCc1ccccc1)C(=O)N[C@@H](Cc1ccccc1)C(N)=O` [Compound No. 269, 3-Phenylpropionyl-Asn-Ser-Phe-AzaGly-Leu-Arg(Me)-Phe-NH2] (Hydrocinnamoyl-NSF[azaGly]L[Arg(Me)]F-NH2) the same measures were 3 and 470 nM.
On to `CNC(=N)NCCC[C@H](NC(=O)[C@H](CC(C)C)NC(=O)NNC(=O)[C@H](Cc1ccccc1)NC(=O)[C@H](CO)NC(=O)[C@H](CC(N)=O)NC(=O)[C@H](Cc1c[nH]c2ccccc12)NC(=O)[C@H](N)Cc1ccc(O)cc1)C(=O)N[C@@H](Cc1ccccc1)C(N)=O` [Compound No. 222, D-Tyr-Trp-Asn-Ser-Phe-AzaGly-Leu-Arg(Me)-Phe-NH2] (H-[dY]WNSF[azaGly]L[Arg(Me)]F-NH2), for which the “Specific Activity (intracellular Ca ion level-increasing activity)” value in experiment [1] is 5. Moreover, the IC50 in experiment [2] came out at 33 nM.
For `CC(C)C[C@H](NC(=O)CNC(=O)[C@H](Cc1ccccc1)NC(=O)[C@H](CO)NC(=O)[C@H](CC(N)=O)NC(=O)[C@H](Cc1c[nH]c2ccccc12)NC(=O)[C@H](CC(N)=O)NC(=O)[C@@H](N)Cc1ccc(O)cc1)C(=O)N[C@@H](CCCN)C(=O)N[C@@H](Cc1ccccc1)C(N)=O` [Compound No. 314] (H-YNWNSFGL[Orn]F-NH2) the same measures were 1 and 470 nM.
For `CC(C)C[C@H](NC(=O)CNC(=O)[C@H](Cc1ccccc1)NC(=O)[C@H](CO)NC(=O)[C@H](CC(N)=O)NC(=O)[C@H](Cc1c[nH]c2ccccc12)NC(=O)[C@H](CC(N)=O)NC(=O)[C@@H](N)Cc1ccc(O)cc1)C(=O)N[C@@H](CCCNC(=N)N)C(=O)N[C@@H](Cc1cccc2ccccc12)C(N)=O` [Compound No. 133] (H-YNWNSFGLR[1Nal]-NH2) the same measures were 3 and 330 nM.
For `CNC(=N)NCCC[C@H](NC(=O)[C@H](CC(C)C)NC(=O)NNC(=O)[C@H](Cc1ccccc1)NC(=O)[C@H](CO)NC(=O)[C@H](CC(N)=O)NC(=O)[C@H](Cc1c[nH]c2ccccc12)NC(=O)[C@@H](CC(N)=O)NC(=O)[C@H](N)Cc1ccc(O)cc1)C(=O)N[C@@H](Cc1ccccc1)C(N)=O` [Compound No. 237, D-Tyr-D-Asn-Trp-Asn-Ser-Phe-AzaGly-Leu-Arg(Me)-Phe-NH2] the same measures were 3 and 27 nM.
For `CNC(=N)NCCC[C@H](NC(=O)[C@H](CC(C)C)NC(=O)CNC(=O)[C@H](Cc1ccccn1)NC(=O)[C@H](CO)NC(=O)[C@H](CC(N)=O)NC(=O)[C@H](Cc1c[nH]c2ccccc12)NC(=O)[C@H](CC(N)=O)NC(=O)[C@H](N)Cc1ccc(O)cc1)C(=O)N[C@@H](Cc1ccccc1)C(N)=O` [Compound No. 281, D-Tyr-Asn-Trp-Asn-Ser-Pya(2)-Gly-Leu-Arg(Me)-Phe-NH2] (H-[dY]NWNS[2Pal]GL[Arg(Me)]F-NH2), in experiment [1], the “Specific Activity (intracellular Ca ion level-increasing activity)” value was “½”. Moreover, in experiment [2], the IC50 was 230 nM.
For `CC(C)C[C@H](NC(=O)CNC(=O)[C@H](Cc1ccccc1)NC(=O)[C@H](CO)NC(=O)[C@H](CC(N)=O)NC(=O)[C@H](Cc1c[nH]c2ccccc12)NC(=O)[C@H](CC(N)=O)NC(=O)[C@H](N)Cc1ccc(O)cc1)C(=O)N[C@@H](CCCNC(=N)N)C(=O)N[C@@H](Cc1ccccc1)C(N)=S` [Compound No. 146] (H-[dY]NWNSFGLR-X3) the same measures were 10 and 370 nM.
Taken in the same sequence, the figures for `CNC(=N)NCCC[C@H](NC(=O)[C@H](CC(C)C)NC(=O)CNC(=O)[C@H](Cc1ccccc1)NC(=O)[C@H](CO)NC(=O)[C@H](CC(N)=O)NC(=O)[C@@H](Cc1c[nH]c2ccccc12)NC(=O)[C@H](CC(N)=O)NC(=O)[C@H](N)Cc1ccc(O)cc1)C(=O)N[C@@H](Cc1ccccc1)C(N)=O` [Compound No. 142, D-Tyr-Asn-D-Trp-Asn-Ser-Phe-Gly-Leu-Arg(Me)-Phe-NH2] were 2 and 26 nM.
For `CC(C)C[C@H](NC(=O)CNC(=O)[C@H](Cc1ccccc1)NC(=O)[C@H](CO)NC(=O)[C@H](CC(N)=O)NC(=O)[C@H](Cc1cn(C=O)c2ccccc12)NC(=O)[C@H](CC(N)=O)NC(=O)[C@@H](N)Cc1ccc(O)cc1)C(=O)N[C@@H](CCCNC(=N)N)C(=O)N[C@@H](Cc1ccc(C#N)cc1)C(N)=O` [Compound No. 78, Tyr-Asn-Trp(For)-Asn-Ser-Phe-Gly-Leu-Arg-Phe(4CN)-NH2] the same measures were 10 and 25 nM.
For `CNC(=N)NCCC[C@H](NC(=O)[C@@H](NC(=O)CNC(=O)[C@H](Cc1ccccc1)NC(=O)[C@H](CO)NC(=O)[C@H](CC(N)=O)NC(=O)[C@H](Cc1c[nH]c2ccccc12)NC(=O)[C@H](CC(N)=O)NC(=O)[C@H](N)Cc1ccc(O)cc1)C(C)C)C(=O)N[C@@H](Cc1ccccc1)C(N)=O` [Compound No. 213] (H-[dY]NWNSFGV[Arg(Me)]F-NH2), the “Specific Activity (intracellular Ca ion level-increasing activity)” value in experiment [1] was 2. Further, the IC50 in experiment [2] came to 190 nM.
Taken in the same sequence, the figures for `CNC(=N)NCCC[C@H](NC(=O)[C@H](CC(C)C)NC(=O)NNC(=O)[C@H](Cc1ccccc1)NC(=O)[C@H](CO)NC(=O)[C@H](CC(N)=O)NC(=O)[C@H](Cc1cccc2ccccc12)NC(=O)[C@H](CC(N)=O)NC(=O)[C@H](N)Cc1ccc(O)cc1)C(=O)N[C@@H](Cc1ccccc1)C(N)=O` [Compound No. 245, D-Tyr-Asn-Nal(1)-Asn-Ser-Phe-AzaGly-Leu-Arg(Me)-Phe-NH2] (H-[dY]N[1Nal]NSF[azaGly]L[Arg(Me)]F-NH2) were 1 and 98 nM.
Taken in the same sequence, the figures for `CCNC(=N)NCCC[C@H](NC(=O)[C@H](CC(C)C)NC(=O)CNC(=O)[C@H](Cc1ccccc1)NC(=O)[C@H](CO)NC(=O)[C@H](CC(N)=O)NC(=O)[C@H](Cc1c[nH]c2ccccc12)NC(=O)[C@H](CC(N)=O)NC(=O)[C@@H](N)Cc1ccc(O)cc1)C(=O)N[C@@H](Cc1ccccc1)C(N)=O` [Compound No. 220] were 5 and 330 nM.
For `CNC(=N)NCCCC[C@H](NC(=O)[C@H](CC(C)C)NC(=O)CNC(=O)[C@H](Cc1ccccc1)NC(=O)[C@H](CO)NC(=O)[C@H](CC(N)=O)NC(=O)[C@H](Cc1c[nH]c2ccccc12)NC(=O)[C@H](CC(N)=O)NC(=O)[C@@H](N)Cc1ccc(O)cc1)C(=O)N[C@@H](Cc1ccccc1)C(N)=O` [Compound No. 312] (H-YNWNSFGL[X7]F-NH2) the same measures were 3 and 100 nM.
As to `CC(C)C[C@H](NC(=O)CNC(=O)[C@H](Cc1ccccc1)NC(=O)[C@H](CO)NC(=O)[C@H](CC(N)=O)NC(=O)[C@H](Cc1c[nH]c2ccccc12)NC(=O)[C@H](CC(N)=O)NC(=O)[C@@H](N)Cc1ccc(O)cc1)C(=O)N[C@@H](CCCNC(=N)N)C(=O)N[C@@H](Cc1ccc(N)cc1)C(N)=O` [Compound No. 131], the “Specific Activity (intracellular Ca ion level-increasing activity)” value in experiment [1] was 3. The same molecule returned an IC50 in experiment [2] of 120 nM.
On to `CC(C)C[C@H](NC(=O)CNC(=O)[C@H](Cc1ccccc1)NC(=O)[C@H](CO)NC(=O)[C@H](CC(N)=O)NC(=O)[C@H](Cc1c[nH]c2ccccc12)NC(=O)[C@H](CC(N)=O)NC(=O)[C@@H](N)Cc1ccc(O)cc1)C(=O)N[C@@H](CCCNC(=N)N)C(=O)N[C@@H](CC1CCCCC1)C(N)=O` [Compound No. 112] (H-YNWNSFGLR[Cha]-NH2), for which, in experiment [1], the “Specific Activity (intracellular Ca ion level-increasing activity)” value turned out to be 2. The molecule further returned an IC50 in experiment [2] of 370 nM.
Taken in the same sequence, the figures for `CNC(=N)NCCC[C@H](NC(=O)[C@H](CC(C)C)NC(=O)NNC(=O)[C@H](Cc1ccccc1)NC(=O)[C@H](CO)NC(=O)[C@H](CC(N)=O)NC(=O)[C@@H](Cc1c[nH]c2ccccc12)NC(=O)[C@H](CC(N)=O)NC(=O)[C@H](N)Cc1ccc(O)cc1)C(=O)N[C@@H](Cc1ccccc1)C(N)=O` [Compound No. 236, D-Tyr-Asn-D-Trp-Asn-Ser-Phe-AzaGly-Leu-Arg(Me)-Phe-NH2] were 2 and 42 nM.
For `CC[C@H](C)[C@H](NC(=O)[C@H](N)Cc1ccc(O)cc1)C(=O)N[C@@H](CC(N)=O)C(=O)N[C@@H](CO)C(=O)N[C@@H](Cc1ccccc1)C(=O)NCC(=O)N[C@@H](CC(C)C)C(=O)N[C@@H](CCCNC(=N)NC)C(=O)N[C@@H](Cc1ccccc1)C(N)=O` [Compound No. 228] (H-[dY]INSFGL[Arg(Me)]F-NH2) the same measures were 5 and 40 nM.
Taken in the same sequence, the figures for `CC(C)C[C@H](NC(=O)[C@H](C)NC(=O)[C@H](Cc1ccccc1)NC(=O)[C@H](CO)NC(=O)[C@H](CC(N)=O)NC(=O)[C@H](Cc1c[nH]c2ccccc12)NC(=O)[C@H](CC(N)=O)NC(=O)[C@@H](N)Cc1ccc(O)cc1)C(=O)N[C@@H](CCCNC(=N)N)C(=O)N[C@@H](Cc1ccccc1)C(N)=O` [Compound No. 50] (H-YNWNSFALRF-NH2) were 30 and 190 nM.

For the origin of these results see patent US8361968B2 (Takeda Pharmaceutical Company Limited, priority 2002, dated 2013).
